# Experimental data: PubChem BioAssay (NCI)
#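 1) Cells in 96-well plates. 2) Compound, 48 h, 5 concentrations. 3) Linear interpolation between surrounding doses. 4) Unreached endpoint = highest concentration. TGI marks complete inhibition of growth.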
# Tests used:
# Test in all cases: NCI-60 cell line screen, 48 h
# [1] = system: RXF 393 renal
# [2] = system: UO-31 renal
# [3] = system: CAKI-1 renal
# [4] = system: OVCAR-3 ovarian
# [5] = system: SK-MEL-2 melanoma
# [6] = system: U251 CNS
# [7] = system: MDA-MB-435
# [8] = system: HL-60(TB) leukemia
# [9] = system: MDA-MB-231 breast
# [10] = system: NCI-H23 lung
# [11] = system: NCI-H522 lung
# [12] = system: A549 NSCLC
# [13] = system: SW-620 colon
# [14] = system: NCI/ADR-RES ovarian
# [15] = system: K-562 leukemia
# [16] = system: SF-539 CNS
# [17] = system: SN12C renal
# [18] = system: OVCAR-8 ovarian
# [19] = system: COLO 205 colon
# [20] = system: CCRF-CEM leukemia
# [21] = system: NCI-H460 lung
# [22] = system: DU-145 prostate
# [23] = system: KM12 colon
# [24] = system: M14 melanoma
# [25] = system: HCT-15 colon
# [26] = system: SNB-75 CNS
# [27] = system: IGROV1 ovarian
# [28] = system: SF-295 CNS
# [29] = system: MDA-N
# [30] = system: PC-3 prostate
# [31] = system: EKVX NSCLC
# [32] = system: T-47D breast
# [33] = system: HT29 colon
# [34] = system: HS 578T breast
# [35] = system: SNB-19 CNS
# [36] = system: OVCAR-5 ovarian
# [37] = system: TK-10 renal
# [38] = system: SK-MEL-5 melanoma
# [39] = system: SF-268 CNS
# [40] = system: 786-0 renal
# [41] = system: RPMI-8226 leukemia
# [42] = system: HOP-62 NSCLC
# [43] = system: HOP-92 NSCLC
# [44] = system: SK-MEL-28 melanoma
# [45] = system: A498 renal
# [46] = system: ACHN renal
# [47] = system: UACC-257 melanoma
# [48] = system: UACC-62 melanoma
# [49] = system: SK-OV-3 ovarian
# [50] = system: MOLT-4 leukemia
# [51] = system: MCF7 breast
# [52] = system: BT-549 breast
# [53] = system: HCT-116 colon
# [54] = system: HCC-2998 colon
# [55] = system: MALME-3M melanoma
# [56] = system: SR leukemia
# [57] = system: LOX IMVI melanoma
smiles,measurement,setting,value
CCOC(=O)c1ccc(Nc2nc3ccccc3n3cccc23)cc1,TGI,[1],49.7 µM
same,TGI,[2],> 100 µM
same,TGI,[3],> 100 µM
same,TGI,[4],> 100 µM
same,TGI,[5],> 100 µM
same,TGI,[6],98 µM
same,TGI,[7],> 100 µM
same,TGI,[8],0.0169 µM
same,TGI,[9],> 100 µM
same,TGI,[10],> 100 µM
same,TGI,[11],> 100 µM
same,TGI,[12],> 100 µM
same,TGI,[13],> 100 µM
same,TGI,[14],> 100 µM
same,TGI,[15],> 100 µM
same,TGI,[16],> 100 µM
same,TGI,[17],39.4 µM
same,TGI,[18],> 100 µM
same,TGI,[19],> 100 µM
same,TGI,[20],0.108 µM
same,TGI,[21],> 100 µM
same,TGI,[22],> 100 µM
same,TGI,[23],> 100 µM
same,TGI,[24],> 100 µM
same,TGI,[25],> 100 µM
same,TGI,[26],48.3 µM
same,TGI,[27],> 100 µM
same,TGI,[28],> 100 µM
same,TGI,[29],> 100 µM
same,TGI,[30],> 100 µM
same,TGI,[31],> 100 µM
same,TGI,[32],47.7 µM
same,TGI,[33],> 100 µM
same,TGI,[34],> 100 µM
same,TGI,[35],> 100 µM
same,TGI,[36],> 100 µM
same,TGI,[37],> 100 µM
same,TGI,[38],> 100 µM
same,TGI,[39],> 100 µM
same,TGI,[40],> 100 µM
same,TGI,[41],> 100 µM
same,TGI,[42],75.7 µM
same,TGI,[43],> 100 µM
same,TGI,[44],> 100 µM
same,TGI,[45],> 100 µM
same,TGI,[46],> 100 µM
same,TGI,[47],> 100 µM
same,TGI,[48],> 100 µM
same,TGI,[49],92.4 µM
same,TGI,[50],> 100 µM
same,TGI,[51],> 100 µM
same,TGI,[52],> 100 µM
same,TGI,[53],> 100 µM
same,TGI,[54],> 100 µM
same,TGI,[55],> 100 µM
same,TGI,[56],> 100 µM
same,TGI,[57],> 100 µM
